Experimental data: patent US20050261472A1, “Binding moieties for fibrin” (Dyax Corp., priority 1999, published 2005)
Bridge positions count the residues as written; N and C are the ends. Peptide text beside a SMILES is read from it.

T1: dried fibrin (Homo sapiens, UniProt P02671+P02675+P02679)
T1 construct: Thrombin cleavage at the Arg16-Arg17 bond in the Ax chains and at the Arg14-Gly15 bond on the BP chains releases fibrinopeptides A and B; host or cells: fibrinogen solution clotted with thrombin in 96-well plates and dried at 37 C
T1 sequence (P02671 36-629 limits assumed): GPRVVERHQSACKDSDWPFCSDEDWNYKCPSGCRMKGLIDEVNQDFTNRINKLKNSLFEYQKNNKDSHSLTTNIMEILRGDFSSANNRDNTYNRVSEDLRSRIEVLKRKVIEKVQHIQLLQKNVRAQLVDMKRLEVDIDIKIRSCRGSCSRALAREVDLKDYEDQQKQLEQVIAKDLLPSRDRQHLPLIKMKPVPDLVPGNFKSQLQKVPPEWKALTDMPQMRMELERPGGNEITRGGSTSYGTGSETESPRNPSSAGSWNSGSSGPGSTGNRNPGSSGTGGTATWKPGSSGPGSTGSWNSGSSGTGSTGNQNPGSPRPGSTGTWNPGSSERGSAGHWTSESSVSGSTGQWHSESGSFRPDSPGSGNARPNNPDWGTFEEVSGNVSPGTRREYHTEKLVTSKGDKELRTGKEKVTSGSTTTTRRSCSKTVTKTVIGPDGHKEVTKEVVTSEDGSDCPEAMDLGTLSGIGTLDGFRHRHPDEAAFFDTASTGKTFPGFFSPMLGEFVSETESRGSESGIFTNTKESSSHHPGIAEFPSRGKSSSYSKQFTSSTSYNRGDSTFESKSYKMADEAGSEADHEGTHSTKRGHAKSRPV
T1 sequence (P02675 45-491 limits assumed): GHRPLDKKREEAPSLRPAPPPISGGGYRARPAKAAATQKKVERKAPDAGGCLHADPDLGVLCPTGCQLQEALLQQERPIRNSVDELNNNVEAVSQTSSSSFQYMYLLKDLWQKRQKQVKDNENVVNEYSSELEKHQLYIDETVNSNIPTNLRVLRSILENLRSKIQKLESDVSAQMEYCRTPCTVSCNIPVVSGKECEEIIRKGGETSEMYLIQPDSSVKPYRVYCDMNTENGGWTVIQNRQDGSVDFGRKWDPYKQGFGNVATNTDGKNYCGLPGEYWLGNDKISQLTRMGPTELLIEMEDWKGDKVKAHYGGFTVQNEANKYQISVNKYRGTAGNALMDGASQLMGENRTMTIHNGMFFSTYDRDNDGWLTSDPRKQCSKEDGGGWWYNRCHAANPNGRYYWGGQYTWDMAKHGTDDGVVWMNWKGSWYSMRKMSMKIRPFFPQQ
T1 sequence (P02679 27-437 isoform P02679-2 limits assumed): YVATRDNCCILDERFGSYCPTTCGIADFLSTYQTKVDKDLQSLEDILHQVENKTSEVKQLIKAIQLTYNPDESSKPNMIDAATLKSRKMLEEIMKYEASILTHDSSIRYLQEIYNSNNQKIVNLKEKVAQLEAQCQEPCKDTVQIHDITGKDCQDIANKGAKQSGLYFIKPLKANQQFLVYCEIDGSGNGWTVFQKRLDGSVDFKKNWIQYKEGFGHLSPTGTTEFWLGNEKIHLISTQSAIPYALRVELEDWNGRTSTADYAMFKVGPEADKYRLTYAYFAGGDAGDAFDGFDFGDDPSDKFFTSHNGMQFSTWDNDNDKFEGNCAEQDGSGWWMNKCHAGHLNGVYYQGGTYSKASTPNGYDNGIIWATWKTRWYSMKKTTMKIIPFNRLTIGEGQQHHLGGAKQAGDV

T2: fibrin (Homo sapiens, UniProt P02671+P02675+P02679)
T2 construct: Thrombin cleavage at the Arg16-Arg17 bond in the Ax chains and at the Arg14-Gly15 bond on the BP chains releases fibrinopeptides A and B; host or cells: fibrinogen solution clotted with thrombin in 96-well plates and dried at 37 C
T2 sequence (P02671 36-629 limits assumed): T1 sequence (P02671 36-629 limits assumed)
T2 sequence (P02675 45-491 limits assumed): T1 sequence (P02675 45-491 limits assumed)
T2 sequence (P02679 27-437 isoform P02679-2 limits assumed): T1 sequence (P02679 27-437 isoform P02679-2 limits assumed)


Columns and labels:
dried fibrin = biological target: T1, dried fibrin; test: dissociation constant against dried fibrin (free peptide by mass spectrometry); assay type: binding
Protocol: A fibrinogen solution was prepared at 10 mg/ml (or at twice the concentration of fibrin desired) in TBS buffer (50 mM Tris, 150 mM NaCl, pH 7.4). The fibrinogen solution typically contained ˜17 mM citrate. Subsequently, a solution was prepared containing 2 U/ml thrombin, 20 mM CaCl2, and 5 mM ε-aminocaproic acid in TBS. The fibrinogen solution and thrombin solution were mixed 1:1 in the wells of a 96-well plate, aliquoting 50 μL of each solution in each well (total volume=100 μL). The plates were evaporated to dryness overnight at 37° C. The polypeptide to be tested, dissolved in water, was added to each well at concentrations between 1-200 μM. A typical binding assay contained 24 points at concentrations of 2, 4, 6, 8, 10, 12, 14, 17, 20, 23, 26, 30, 35, 40, 45, 50, 60, 70, 80, 100, 125, 150, 175, and 200 μM. The plate containing the peptide and (rehydrated) dried fibrin was covered and incubated at 37° C. on a shaker table for 2 hours.
The supernatant in each well was removed by pipette and the concentration of the polypeptide was measured by mass spectrometry. The ion current detected at the mass of the peptide was monitored after injection of a sample into the mass spectrometer. The area-under-the-peak was quantitated and compared to standards of known concentration. The concentration of peptide in the supernatant is equal to the concentration of free peptide. The concentration of bound peptide was determined by subtracting the concentration of free peptide from the total (starting) concentration. A plot of [Bound Peptide] vs. [Free Peptide] was used to determine the Kd and the concentration of bound peptide at saturation. The curve was fit to the equation: [Bound]=N×[Free]/(Kd+[Free]) where [Bound] is the concentration of bound polypeptide, [Free] is the concentration of free polypeptide, Kd is the dissociation constant (equal to the reciprocal of Ka) and N is the concentration of binding sites. The number of binding sites per fibrin molecule was equal to the lo concentration of binding sites determined by the [Bound Polypeptide] vs. [Free Polypeptide] plot, divided by the concentration of fibrin (15 μM) used in the assay.

DD(E) = biological target: T3, DD(E) (Homo sapiens, UniProt P02671+P02675+P02679); test: dissociation constant against fibrin-derived polypeptide DD(E); assay type: binding; conditions: read-out: Kd DD(E)
T3 construct: host or cells: purchased fibrinogen clotted with thrombin, digested with plasmin, then purified by ammonium sulfate cuts and Sephacryl S200
Protocol: The soluble fibrin-derived polypeptide DD(E) was prepared following a modification of a published method (Moskoitz and Budzynksi, Biochemistry, 33: 12937-12944 (1994) and references therein). Fibrinogen containing a Factor XIII trace impurity (1 g, Grade L; purchased from American Diagnostica) was dissolved in TBS buffer and dialyzed overnight against TBS containing 5 mM citrate. The fibrinogen concentration was adjusted to 3.0 mg/ml and CaCl2 was added to a concentration of 10 mM. Clotting of the fibrinogen was initiated by the addition of thrombin to 0.5 U/ml and the clot was incubated for 3 hours at 37° C. The clot was cut up with a spatula to release water and to concentrate the clot. The clot pieces were washed twice with TBS.Ca buffer (TBS containing 2 mM CaCl2) and were centrifuged at 4,000×g to compact the clots between washes. The clot material was resuspended in 250 ml TBS containing 25 mM CaCl2 and 2 K.I.U. plasmin per mg fibrin. The clots were digested overnight at 20° C. Undigested clot was removed by pipette, and the supernatant was shaken with 10 ml of Lysine Sepharose (Pharmacia) for 30 minutes and filtered to remove the resin. Aprotinin was added to the filtrate to a concentration of 500 U/μL. Ammonium Sulfate was added to 30% saturation and the precipitated protein was removed by centrifugation. More ammonium sulfate was added to the supernatant to a final concentration of 50% saturation, and the precipitated protein was concentrated by centrifugation. The pellets, containing DD(E), were resuspended in a small volume of buffer (50 mM Tris, 150 mM NaCl, 2 mM CaCl2) (<10 ml) and chromatographed on a Sephacryl S200 (Pharmacia) size exclusion column (5×100 cm) in the same buffer. Fractions of protein eluted from the column were assayed by SDS-PAGE for DD(E). DD(E) contains subunits of 55 kD (Fragment E) and 190 kD (Fragment DD). […]
Dissociation constants were determined against DD(E) as described above.

fibrin = biological target: T2, fibrin; test: dried fibrin plate ELISA of phage isolates; assay type: binding; conditions: phage isolates from TN7 library; symbols not defined
Protocol: For screening libraries to isolate binding moieties for fibrin, two fibrin targets, i.e., synthetic fibrin clots and then a soluble fibrin fragment, DD(E), were prepared. To prepare fibrin for screening, dilute fibrin clots were formed in the wells of a 96-well plate, dried down to a thin layer, and then rehydrated prior to library screening. In a typical procedure, a 0.15 mg/ml fibrinogen solution was prepared in TBS buffer (50 mM Tris, 150 mM NaCl, pH 7.4). A solution containing 2 U/ml thrombin, 10 mM CaCl2, and 5 mM ε-aminocaproic acid in TBS was prepared. The fibrinogen solution and thrombin solution were mixed 1:1 in the wells of a 96-well plate, aliquoting 25 μL of each solution in each well (total volume=50 μL). The plates were evaporated to dryness by incubating them at 37° C. overnight. Just before a phage library was added to the dried fibrin target, the fibrin wells were washed three times for 10 minutes with phage blocking buffer (TBS containing 2 mM CaCl2, 0.1% Tween-20, and 0.1% human serum albumin (HSA)).
After five rounds of selection, the eluted phage were propagated and a portion plated to isolate phage plaques arising from individual clones. Ninety such clones were selected randomly, propagated, and tested individually for binding to fibrin in a dried fibrin plate assay. Dried fibrin plates were prepared as described above for the library screening. Phage samples (˜10^9 phage each) were incubated in the dried fibrin plate wells in binding buffer (50 mM Tris, 150 mM NaCl, 2 mM CaCl2, 0.05% Tween-20) containing 0.1% HSA. After 1 hour, the plates were washed 5 times with binding buffer. Anti-M13 antibody conjugated to horseradish peroxidase (Pharmacia) was added at 1/5000 dilution in binding buffer to the wells and incubated with the fibrin for 1 hour. The wells were again washed 5 times with binding buffer and the presence of the antibody/phage/fibrin complex was measured with HRP calorimetric reagents (3,3′,5,5′-tetrarnethylbenzidine (TMB) and H2O2). A high absorbance at 595 nm (due to oxidized TMB) was indicative of a tight phage/fibrin interaction, and phage clones corresponding to those wells were identified as bearing fibrin-binding moieties.
The amino acid sequence data from these phage isolates were sorted according to the degree of similarity and response in the fibrin ELISA assay.

[1] = biological target: DD(E) soluble fibrin-derived polypeptide (UniProt P02671); test: Kd against DD(E) target, 'as described above'

| Molecule | Kd (dried fibrin) [µM] | Kd (DD(E)) [µM] | relative binding (fibrin) | other results |
| --- | --- | --- | --- | --- |
| H-LPSDYYGTSLD-NH2 [compound 38] | > 100 | > 100 |  |  |
| CC(C)C[C@H](NC(=O)[C@@H]1CSSC[C@H](NC(=O)[C@@H]2CCCN2C(=O)[C@@H](N)CC(C)C)C(=O)N[C@@H](CC(=O)O)C(=O)N[C@@H](Cc2ccc(O)cc2)C(=O)N[C@@H](Cc2ccc(O)cc2)C(=O)NCC(=O)N[C@@H](C)C(=O)N1)C(=O)N[C@@H](CC(=O)O)C(N)=O [SEQ ID NO: 46, LPCDYYGACLD] (H-LPCDYYGACLD-NH2; disulfide 3-9) | > 100 | > 100 |  |  |
| CC(C)CC(N)C(=O)N1CCCC1C(=O)NC1CSSCC(C(=O)NC(CC(C)C)C(=O)NC(CC(=O)O)C(N)=O)NC(=O)C(C(C)O)NC(=O)CNC(=O)C(Cc2ccc(O)cc2)NC(=O)C(Cc2ccc(O)cc2)NC(=O)C(CC(=O)O)NC1=O (stereo not shown) [SEQ ID NO: 9, LPCDYYGTCLD] | 2.7 | 2.6 |  |  |
| CC(C)C[C@H](NC(=O)[C@@H]1CSSC[C@H](NC(=O)[C@@H]2CCCN2C(=O)[C@@H](N)CC(C)C)C(=O)N[C@@H](C)C(=O)N[C@@H](Cc2ccc(O)cc2)C(=O)N[C@@H](Cc2ccc(O)cc2)C(=O)NCC(=O)N[C@@H]([C@@H](C)O)C(=O)N1)C(=O)N[C@@H](CC(=O)O)C(N)=O [SEQ ID NO: 42, LPCAYYGTCLD] (H-LPCAYYGTCLD-NH2; disulfide 3-9) | 23 | 5.9 |  |  |
| 5 (RSCNYYGTCLH; synthetic fibrin binding peptide) [compound 5] |  |  | + + + |  |
| 4 (YYGT; recurrent motif among synthetic fibrin binding peptides) [compound 4] |  |  | + + + |  |
| 10 (FSCWYSLHCHR; synthetic fibrin binding peptide) [compound 10] |  |  | + + + |  |
| 7 (FACHYYGTCLH; synthetic fibrin binding peptide) [compound 7] |  |  | + + + |  |
| CC(C)C[C@H](NC(=O)[C@@H]1CSSC[C@H](NC(=O)[C@H](C)NC(=O)[C@@H](N)Cc2ccccc2)C(=O)N[C@@H](Cc2c[nH]cn2)C(=O)N[C@@H](Cc2ccc(O)cc2)C(=O)N[C@@H](Cc2ccc(O)cc2)C(=O)NCC(=O)N[C@@H]([C@@H](C)O)C(=O)N1)C(=O)N[C@@H](Cc1c[nH]cn1)C(N)=O [SEQ ID NO: 7, FACHYYGTCLH] (H-FACHYYGTCLH-NH2; disulfide 3-9) | 23 | 7.3 |  |  |
| 6 (HDCQYYGTCLH; synthetic fibrin binding peptide) [compound 6] |  |  | + + + |  |
| WFHCPYDLCHIL (peptide, not shown: large carriers) |  |  |  | Kd [1]: 1.4 µM |
| QWECPYGLCWIQ (peptide, not shown: large carriers) |  |  |  | Kd [1]: 0.74 µM |
| NHGCYNSYGVPYCDYS (peptide, not shown: large carriers) |  |  |  | Kd [1]: 2.7 µM |
| RFLCYDSYYHWWCSHH (peptide, not shown: large carriers) |  |  |  | Kd [1]: 10 µM |
